From patent EP4818178A1, “PREPARATION AND USE OF PYRIMIDOTHIOPYRANONE KRAS MUTANT PROTEIN INHIBITOR” (Ya Therapeutics Inc, priority 2024, dated 2025)

Molecular target: KRasG12D (Homo sapiens, UniProt P01116, G12D)
Assay: KRAS inhibitory activity test, TR-FRET (inhibition of binding of KRasG12D to GTP, SOS/GTP nucleotide exchange)
Format: biochemical
Details: read-out: IC50 values of the compounds for inhibiting KRAS enzymes, G12D
Procedure: • 1. […] Reagent Preparation: • a. Storage Reagents:
Prepare a 1L solution by mixing 20mL of 1000mM HEPES, 20mL of 500mM EDTA, 10mL of 5M sodium chloride, 0.1mL of 100% Tween 20, and 949.9mL of water. Sterilize by filtration and store at 4°C.
Prepare a 1L solution by mixing 20mL of 1000mM HEPES, 10mL of 1000mM magnesium chloride, 30mL of 5M sodium chloride, 0.05mL of 100% Tween 20, and 939.95mL of water. Sterilize by filtration and store at 4°C. 3) KRAS/Bodipy GDP/Tb-SA Mixture: Mix 9.5 µL of 95 µM KRasG12D protein with 440.5 µL of KRAS nucleotide exchange buffer. Incubate at room temperature for 1 hour. Then, mix with 8.4 µL of 17.9 µM Tb-SA, 1.8 µL of 5 mM Bodipy GDP, and 9539.8 µL of KRAS experimental buffer to prepare […]. After mixing, incubate at room temperature for 6 hours and store at -80°C.
• 1) KRAS Enzyme Solution: Mix 73.3 µL of KRAS/Bodipy GDP/Tb-SA mixture with 2126.7 µL of KRAS experimental buffer to prepare a 2200 µL solution. • 2) SOS/GTP Mixture
c. Experimental Procedure: Mix 1.59 µL of 166 µM SOS protein with 198 µL of 100 mM... GTP and 0.41 µL KRAS buffer were prepared to a 2200 µL solution. The stock solution concentration of the control compound was 1 mM, and the stock solution concentration of the test compound was 10 mM. 9 µL of the control compound and the test compound were transferred to a 384-LDV plate. The compound on the LDV plate was 3-fold diluted 10-point using Bravo. 9 nL of the compound on the LDV plate was transferred to the experimental plate using ECHO. 3 µL of a 3 nM Kras/0.5 nM TB-SA/30 nM BodipyGDP mixture and 3 µL of Ras buffer were added to each well of the experimental plate using a Dragonfly autopilot. The plate was centrifuged at 1000 rpm for 1 minute. The plate was incubated at room temperature for 1 hour. 3 µL of 120 nM SOS/9 mM KRAS buffer was added to each well of the experimental plate using a Dragonfly autopilot. The […] was centrifuged at 1000 rpm for 1 minute; the plate was incubated at room temperature for 1 hour; the plate was read and the data were recorded using Envision; the data were analyzed using Excel and Xlfit to calculate the IC50of the test compound. "++++" indicates IC50≤ 10 nM; "+++" indicates 10 nM < IC50≤ 100 nM; "++" indicates 100 nM < IC50≤ 2000 nM; "+" indicates 2000 nM < IC50.

Row | Compound | IC50 [nM]
1 | Cc1cc(N)cc(C2Cc3nc(OC[C@@]45CCCN4CC(=C(F)F)C5)nc(N4CC5CCC(C4)N5)c3CS2(=O)=O)c1C(F)(F)F (stereo partly drawn) [Compound 40] | ≤ 10
2 | CC#Cc1cc(N)c(F)c(C2Cc3nc(OC[C@@]45CCCN4C[C@H](F)C5)nc(N4CC5CCC(C4)N5)c3CS2(=O)=O)c1C(F)(F)F (stereo partly drawn) [Compound 21, 7-(3-amino-2-fluoro-5-(prop-1-yn-1-yl)-6-(trifluoromethyl)phenyl)-4-(3,8-diazabicyclo[3.2.1]octane-3-yl)-2-(((2R,7AS)-2-fluorotetrahydro-1H-pyrrolazin-7a(5H)-yl)methoxy)-7,8-dihydro-5H-thiopyrano[4,3-d]pyrimidine-6,6-dioxide] | ≤ 10
3 | Cc1cc(N)c(F)c([C@@H]2Cc3nc(OC[C@@]45CCCN4C[C@H](F)C5)nc(N4CCC[C@@](C)(O)C4)c3CS2(=O)=O)c1C(F)(F)F [Compound 5A, (7S)-7-(3-amino-2-fluoro-5-methyl-6-(trifluoromethyl)phenyl)-2-(((2R,7AS)-2-fluorotetrahydro-1H-pyrrolazin-7a(5H)-yl)methoxy)-4-((R)-3-hydroxy-3-methylpiperidin-1-yl)-7,8-dihydro-5H-thiopyrano[4,3-d]pyrimidine-6,6-dioxide] | 10 to 100
4 | Cc1cc(N)c(F)c([C@@H]2Cc3nc(OC[C@@]45CCCN4C[C@H](F)C5)nc(N4C[C@H]5CC[C@@H](C4)N5)c3CS2(=O)=O)c1C(F)(F)F [Compound 29A, (7S)-7-(3-amino-2-fluoro-5-methyl-6-(trifluoromethyl)phenyl)-4-((1R,5S)-3,8-diazabicyclo[3.2.1]octane-3-yl)-2-(((2R,7AS)-2-fluorotetrahydro-1H-pyrrolazin-7a(5H)-yl)methoxy)-7,8-dihydro-5H-thiopyrano[4,3-d]pyrimidine 6,6-Dioxide] | ≤ 10
5 | Cc1cc(N)nc([C@@H]2Cc3nc(OC[C@@]45CCCN4CC(=C(F)F)C5)nc(N4CC5CCC(C4)N5)c3CS2(=O)=O)c1C(F)(F)F [Compound 18A, (7S)-7-(6-amino-4-methyl-3-(trifluoromethyl)pyridin-2-yl)-2-(((S)-2-(difluoromethylene)tetrahydro-1H-pyrrolazin-7a(5H)-yl)methoxy)-4-(3,8-diazabicyclo[3.2.1]octane-3-yl)-7,8-dihydro-5H-thiopyrano[4,3-d]pyrimidine-6,6-dioxide] | ≤ 10
6 | CC#Cc1cc(N)c(F)c(C2Cc3nc(OC[C@@]45CCCN4CC(=C(F)F)C5)nc(N4CC5CCC(C4)N5)c3CS2(=O)=O)c1C(F)(F)F (stereo partly drawn) [Compound 23, 7-(3-amino-2-fluoro-5-(prop-1-yn-1-yl)-6-(trifluoromethyl)phenyl)-4-(3,8-diazabicyclo[3.2.1]octane-3-yl)-2-(((S)-2-(difluoromethylene)tetrahydro-1H-pyrrolazin-7a(5H)-y 1)methoxy)-7,8-dihydro-5H-thiopyrano[4,3-d]pyrimidine-6,6-dioxide] | ≤ 10
7 | Cc1cc(N)c(F)c([C@@H]2Cc3nc(OC[C@@]45CCCN4C[C@H](F)C5)nc(N4C[C@H]5CC[C@@H](C4)N5)c3CS2(=O)=O)c1C(F)(F)F [Compound 35A, (7S)-7-(3-amino-2-fluoro-5-methyl-6-(trifluoromethyl)phenyl)-4-((1R,5S)-3,8-diazabicyclo[3.2.1]octane-3-yl)-2-(((2R,7AS)-2-fluorotetrahydro-1H-pyrrolazin-7a(5H)-yl)methoxy)-7,8-dihydro-5H-thiopyrano[4,3-d]pyrimidine 6,6-Dioxide] | ≤ 10
8 | Cc1cc(N)nc(C2Cc3nc(OC[C@@]45CCCN4CC(=C(F)F)C5)nc(N4CC5CCC(C4)N5)c3CS2(=O)=O)c1C(F)(F)F (stereo partly drawn) [Compound 18, 7-(6-amino-4-methyl-3-(trifluoromethyl)pyridin-2-yl)-2-(((S)-2-(difluoromethylene)tetrahydro-1H-pyrrolazin-7a(5H)-yl)methoxy)-4-(3,8-diazabicyclo[3.2.1]octane-3-yl)-7,8-dihydro-5H-thiopyrano[4,3-d]pyrimidine-6,6-dioxide] | ≤ 10
9 | 7-(3-amino-2-fluoro-5-methyl-6-(trifluoromethyl)phenyl)-4-(1R,5S)-3,8-diazabicyclo [3.2.1]octane-3-yl)-2-(((2R,7AS)-2-fluorotetrahydro-1H-pyrrolazin-7a(5H)-yl)methox y)-7,8-dihydro-5H-thiopyrano[4,3-d]pyrimidine-6,6-dioxide [Compound 36] | ≤ 10
10 | Cc1cc(N)nc([C@H]2Cc3nc(OC[C@@]45CCCN4C[C@H](F)C5)nc(N4CCC[C@@](C)(O)C4)c3CS2(=O)=O)c1C(F)(F)F [Compound 8B, (7R)-7-(6-amino-4-methyl-3-(trifluoromethyl)pyridin-2-yl)-2-(((2R,7AS)-2-fluorotetrahydro-1H-pyrrolazin-7a(5H)-yl)methoxy)-4-((R)-3-hydroxy-3-methylpiperidin-1-yl) -7,8-dihydro-5H-thiopyrano[4,3-d]pyrimidine-6,6-dioxide] | 10 to 100
11 | Cc1cc(N)c(F)c([C@@H]2Cc3nc(OC[C@@]45CCCN4C[C@H](F)C5)nc(N4C[C@H]5CC[C@@H](C4)N5)c3CS2(=O)=O)c1C(F)(F)F [Compound 30A, (7S)-7-(3-amino-2-fluoro-5-methyl-6-(trifluoromethyl)phenyl)-4-((1R,5S)-3,8-diazabicyclo[3.2.1]octane-3-yl)-2-(((2R,7AS)-2-fluorotetrahydro-1H-pyrrolazin-7a(5H)-yl)methoxy)-7,8-dihydro-5H-thiopyrano[4,3-d]pyrimidine 6,6-Dioxide] | ≤ 10
12 | Cc1cc(N)cc([C@@H]2Cc3nc(OC[C@@]45CCCN4C[C@H](F)C5)nc(N4CC5CCC(C4)N5)c3CS2(=O)=O)c1C(F)(F)F [Compound 37A] | ≤ 10
13 | CC#Cc1cc(N)c(F)c([C@@H]2Cc3nc(OC[C@@]45CCCN4CC(=C(F)F)C5)nc(N4CC5CCC(C4)N5)c3CS2(=O)=O)c1C(F)(F)F [Compound 23A, (7S)-7-(3-amino-2-fluoro-5-(prop-1-yn-1-yl)-6-(trifluoromethyl)phenyl)-4-(3,8-diazabicyclo[3.2.1]octane-3-yl)-2-(((S)-2-(difluoromethylene)tetrahydro-1H-pyrrolazin-7a(5H)-yl)methoxy)-7,8-dihydro-5H-thiopyrano[4,3-d]pyrimidine-6,6-dioxide] | ≤ 10
14 | CC#Cc1cc(N)c(F)c([C@@H]2Cc3nc(OC[C@@]45CCCN4C[C@H](F)C5)nc(N4CC5CCC(C4)N5)c3CS2(=O)=O)c1C(F)(F)F [Compound 21A, (7S)-7-(3-amino-2-fluoro-5-(prop-1-yn-1-yl)-6-(trifluoromethyl)phenyl)-4-(3,8-diazabicyclo[3.2.1]octane-3-yl)-2-(((2R,7AS)-2-fluorotetrahydro-1H-pyrrolazin-7a(5H)-yl)methoxy)-7,8-dihydro-5H-thiopyrano[4,3-d]pyrimidine-6,6-dioxide] | ≤ 10
15 | Cc1cc(O)c(F)c([C@@H]2Cc3nc(OC[C@@]45CCCN4C[C@H](F)C5)nc(N4CCC[C@@](C)(O)C4)c3CS2(=O)=O)c1C(F)(F)F [Compound 6A, (7S)-7-(2-fluoro-3-hydroxy-5-methyl-6-(trifluoromethyl)phenyl)-2-(((2R,7AS)-2-fluorotetrahydro-1H-pyrrolazin-7a(5H)-yl)methoxy)-4-((R)-3-hydroxy-3-methylpiperidin-1-yl)-7,8-dihydro-5H-thiopyrano[4,3-d]pyrimidine-6,6-dioxide] | ≤ 10
16 | Cc1cc(N)nc([C@@H]2Cc3nc(OC[C@@]45CCCN4CC(=CF)C5)nc(N4CC5CCC(C4)N5)c3CS2(=O)=O)c1C(F)(F)F [Compound 19A, (7S)-7-(6-amino-4-methyl-3-(trifluoromethyl)pyridin-2-yl)-2-(((S)-2-(fluoromethylene)tetrahydro-1H-pyrrolazin-7a(5H)-yl)methoxy)-4-(3,8-diazabicyclo[3.2.1]octane-3-y 1)-7,8-dihydro-5H-thiopyrano[4,3-d]pyrimidine-6,6-dioxide] | ≤ 10
17 | C=C1CN2CCC[C@@]2(COc2nc3c(c(N4CC5CCC(C4)N5)n2)CS(=O)(=O)C(c2cc(N)cc(C)c2C(F)(F)F)C3)C1 (stereo partly drawn) [Compound 38] | ≤ 10
18 | CC#Cc1cc(N)c(F)c(C2Cc3nc(OC[C@@]45CCCN4C/C(=C\F)C5)nc(N4CC5CCC(C4)N5)c3CS2(=O)=O)c1C(F)(F)F (stereo partly drawn) [Compound 24, 7-(3-amino-2-fluoro-5-(prop-1-yn-1-yl)-6-(trifluoromethyl)phenyl)-4-(3,8-diazabicyclo[3.2.1]octane-3-yl)-2-(((S)-2-(fluoromethylene)tetrahydro-1H-pyrrolazin-7a(5H)-yl)methoxy)-7,8-dihydro-5H-thiopyrano[4,3-d]pyrimidine-6,6-dioxide] | ≤ 10
